Source: patent publication US20260317546A1, “PRETARGETED BIMODAL IMAGING AGENTS” (KØBENHAVNS UNIVERSITET, priority 2023, published 2026)

Legend:
[1] = test system: anti-TAG72 mAb CC49 modified with TCO-tags (CC49-TCO) in LS174T tumor xenografts
Procedure: This assay employs anti-TAG72 mAb CC49 modified with TCO-tags (CC49-TCO) and [111In]In-DOTA-PEG11-BisPy-Tz (FIG. 1) with well-established performance in pretargeted imaging of TAG72 expressing LS174 tumor xenografts.
LS174T xenograft-bearing mice are injected with CC49-TCO. After allowing for accumulation for 72 h, the tetrazine to be evaluated is injected via the tail vein, followed by [111In]In-DOTA-PEG11-BisPy-Tz after 1 h. in vivo performance of the tetrazine to be evaluated can therefore be correlated to tumor uptake of [111In]In-DOTA-PEG11-BisPy-Tz after 22 h. Increased in vivo performance is reflected by lower tumor uptake (see FIG. 1).
Further, a negative control (−C) and a positive control (+C) are included.

[2] = test system: TCO-modified CC49 (CC49-TCO) targeting TAG-72 in human colorectal cancer LS174T xenograft tumors; assay: Pretargeted fluorescence imaging, ex vivo fluorescence measurements of selected organs; format: in vivo, Balb/c nude mice; settings: TCO-modified CC49 vs non-modified CC49 (control); compound 8 i.v. 72 h after antibody, 86.5 μg, 116.7 nmol; 1 h post injection; 488 nm excitation, 525/20 emission
Procedure: Pretargeted imaging of compound 8 of Example 1 was tested in vivo.
Pretargeted imaging of compound 8 of Example 1 was tested in vivo using the monoclonal antibody CC49 targeting TAG-72 in human colorectal cancer LS174T xenograft tumors. Tumors were established in 7-8 week old Balb/c nude mice and after 10 days, the animals were injected i.v. with either 50 μg (0.33 nmol) TCO-modified CC49 (CC49-TCO, ~3.5 TCO/mAb), or non-modified CC49 (control) (n=3 per group). After 72 hours, compound 8 (~100 equivalents per TCO, 86.5 μg, 116.7 nmol) in 100 μL of PBS (pH=7.4) was injected i.v.. One hour post injection, selected organs were harvested for ex vivo fluorescence measurements using a Amersham Typhoon 5 laser scanner platform (GE healthcare Europe) using a 488 nm excitation laser and 525/20 emission filter.

| Structure (SMILES) | blocking effect [1] | fluorescence in tumor (ex vivo) [2] |
| --- | --- | --- |
| CC1=CC(C)=[N+]2C1=C(c1ccnc(-c3nnc(-c4ccc(CN(CC(=O)O)CC(=O)O)cn4)nn3)c1)c1c(C)cc(C)n1[B-]2(F)F [Compound 7, 2,2′-(((6-(6-(4-(5,5-difluoro-1,3,7,9-tetramethyl-5H-4λ4,5λ4-dipyrrolo[1,2-c:2′,1′-f][1,3,2]diazaborinin-10-yl)pyridin-2-yl)-1,2,4,5-tetrazin-3-yl)pyridin-3-yl)methyl)azanediyl)diacetic acid] | 93% | – |
| CC1=CC(C)=[N+]2C1=C(c1ccc(-c3nnc(-c4ccc(CN(CC(=O)O)CC(=O)O)cn4)nn3)nc1)c1c(C)cc(C)n1[B-]2(F)F [Compound 8, 2,2′-(((6-(6-(5-(5,5-difluoro-1,3,7,9-tetramethyl-5H-4λ4,5λ4-dipyrrolo[1,2-c:2′,1′-f][1,3,2]diazaborinin-10-yl)pyridin-2-yl)-1,2,4,5-tetrazin-3-yl)pyridin-3-yl)methyl)azanediyl)diacetic acid] | 98% | higher fluorescence in tumor |
